Common to all, as to type: in vivo
For experiment [1], the system named is Adoxophyes orana fasciata. Kind of experiment: Test Example 8: spray on apple tree, release of Adoxophyes orana fasciata. Conditions: in Malus domestica, 168 h; 500 ppm active ingredient; apple tree sprayed with 20 mL/cup; 60 first-instar Adoxophyes orana fasciata; after 7 days; read-out: Death rate. How it is done: On the other hand, an apple tree was planted in a plastic cup, and grown until the seventh-eighth leaf was spread. The apple tree was sprayed with 20 mL/cup of each of the test spray solution. After the test solution was dried, 60 first-instar Adoxophyes orana fasciata were released, and the cup was covered with a plastic cup upside-down which the bottom was cut off and a filter paper was put thereon. After 7 days, the number of living insects was counted, and a death rate was calculated according to the following equation: Death rate (%)=(Number of dead insects/Number of tested insects)×100

The test system of experiment [2] is Aphis gossypii. Description: Test Example 2: root immersion of cucumber seedling, then inoculation with Aphis gossypii. Conditions: 168 h; 500 ppm active ingredient; cucumber root part immersed in 5 ml; 30 Aphis gossypii inoculated one day after treatment; examined after further seven days. Here is the method: A root part of a cucumber seedling (the first true leaf stage) from which soil had been washed off was immersed in 5 ml of each of the diluted solutions, and one day after treatment, on the cucumber leaf surface was inoculated with 30 Aphis gossypii (whole stage). After further seven days, the number of insect of living Aphis gossypii parasitized on the leaves of the cucumber was examined, and a control value was calculated according to the following equation: Control value (%)={1−(Cb×Tai)/(Cai×Tb))×100 wherein symbols represent as follows: Cb: the number of insects in a non-treated section before treatment, Cai: the number of insects in a non-treated section in observation, Tb: the number of insects in a treated-section before treatment, Tai: the number of insects in a treated-section in observation; wherein the non-treated section represents a section where the test diluted solution prepared by diluting the formulation without the present compound in Formulation Example 5 with the same amount of water as in the treated-section was used.

The subject of experiment [3] is Nilaparvata lugens. Kind of experiment: Test Example 4: spray on rice seedling, release of Nilaparvata lugens larvae. To be noted: 144 h; 500 ppm active ingredient; rice seedling sprayed with 10 ml; third-fourth instar larvae of Nilaparvata lugens; after 6 days at 25° C.; read-out: Control value.
The next experiment concerns Bemisia tabaci. Kind of experiment: Test Example 6: spray on tomato seedling with Bemisia tabaci instar larvae. To be noted: 168 h; 500 ppm active ingredient; 20 ml/cup sprayed on tomato seedling with hatched Bemisia tabaci instar larvae; after 7 days at 25° C. Here is the method: On the other hand, Bemisia tabaci adult was released on a tomato seedling (the third true leaf stage) planted in a polyethylene cup, and made to lay eggs for about 72 hours. The tomato seedling was kept in a greenhouse for 8 days. When instar larvae hatched from the eggs, the above test spray solution was sprayed in the amount of 20 ml/cup. The cup was kept in a greenhouse at 25° C. After the keeping for 7 days, the number of surviving instar larvae on the tomato leaves was examined, and a control value was calculated according to the following equation: Control value (%)={1−(Cb×Tai)/(Cai×Tb))×100 wherein symbols represent as follows: Cb: the number of insects in a non-treated section before treatment, Cai: the number of insects in a non-treated section in observation, Tb: the number of insects in a treated-section before treatment, Tai: the number of insects in a treated-section in observation; wherein the non-treated section represents a section where the test spray solution prepared by diluting the formulation without the present compound in Formulation Example 5 with the same amount of water as in the treated-section was sprayed.

Experiment [4] deals with Aphis gossypii. Description: Test Example 1: spray on cucumber seedling inoculated with Aphis gossypii. To be noted: topical, 144 h; 500 ppm active ingredient (Formulation Example 5 diluted with water); 20 ml sprayed on cucumber seedling with about 30 Aphis gossypii; six days after spraying. How it is done: On the other hand, on a cucumber seedling (the first true leaf stage) planted in a plastic cup was inoculated with about 30 Aphis gossypii, and leaving it for a day. Twenty ml of each of the above test spray solutions was sprayed on this seedling. Six days after spraying, the number of the surviving Aphis gossypii parasitized on the leaves of the cucumber was examined, and a control value was calculated according to the following equation: Control value (%)={1−(Cb×Tai)/(Cai×Tb))×100 wherein symbols represent as follows: Cb: the number of insects in a non-treated section before treatment, Cai: the number of insects in a non-treated section in observation, Tb: the number of insects in a treated-section before treatment, Tai: the number of insects in a treated-section in observation; wherein the non-treated section represents a section where the test spray solution prepared by diluting the formulation without the present compound in Formulation Example 5 with the same amount of water as in the treated-section was sprayed.

Experiment [5] concerns Aphis gossypii. Description: Test Example 3: drench at foot of cucumber seedling, then inoculation with Aphis gossypii. Conditions: soil, 144 h; 500 ppm active ingredient; cucumber seedling drenched at its foot with 5 ml, kept 7 days at 25° C.; 30 Aphis gossypii inoculated; examined after 6 days; read-out: Control value.
Experiment [6] concerns Nilaparvata lugens. Description: Test Example 5: drench at foot of rice seedling, release of Nilaparvata lugens larvae. To be noted: soil, 144 h; 500 ppm active ingredient; rice seedling drenched at its foot with 5 ml, kept 7 days; twenty third-fourth instar larvae of Nilaparvata lugens; examined after 6 days. Here is the method:
On the other hand, a rice seedling (2 weeks after sowing, the second leaf stage) planted in a plastic cup was drenched at its foot with 5 ml of each of the diluted solutions, and kept in a greenhouse of 25° C. for 7 days. Twenty third-fourth instar larvae of Nilaparvata lugens were released, and further kept in the greenhouse for 6 days, then the number of insect of living Nilaparvata lugens parasitized on the rice was examined, and a control value was calculated according to the following equation: Control value (%)={1−(Cb×Tai)/(Cai×Tb))×100 wherein symbols represent as follows: Cb: the number of insects in a non-treated section before treatment, Cai: the number of insects in a non-treated section in observation, Tb: the number of insects in a treated-section before treatment, Tai: the number of insects in a treated-section in observation; wherein the non-treated section represents a section where the test diluted solution prepared by diluting the formulation without the present compound in Formulation Example 5 with the same amount of water as in the treated-section was used.

Where only a bound is given, the exact number is not on record here.

For `C=CCS(=O)(=O)c1ccccc1-c1nc2cc(C(F)(F)F)cnc2n1C` [Present Compound 11, 2-(2-allylsulfonylphenyl)-3-methyl-6-trifluoromethyl-3H-imidazo[4,5-b]pyridine], the pest or weed control at 500 ppm in experiment [1] was ≥ 90%.
As for `CC(C)[S+]([O-])c1ccccc1-c1nc2cc(C(F)(F)F)cnc2n1C` (centres unmarked) [Present Compound 13, 2-(2-isopropylsulfinylphenyl)-3-methyl-6-trifluoromethyl-3H-imidazo[4,5-b]pyridine], the pest or weed control at 500 ppm (with Aphis gossypii [2]; in experiment [1]) was ≥ 90% each time.
Take `CC(C)S(=O)(=O)c1ccccc1-c1nc2cc(C(F)(F)F)cnc2n1C` [Present Compound 14, 2-(2-isopropylsulfonylphenyl)-3-methyl-6-trifluoromethyl-3H-imidazo[4,5-b]pyridine]: the pest or weed control at 500 ppm (with Aphis gossypii [2]; in the experiment on Nilaparvata lugens [3]; in experiment [1]) was ≥ 90% throughout.
In the case of `CCSc1ccccc1-c1nc2cc(C(F)(F)F)cnc2n1CC` [Present Compound 21, 3-ethyl-2-(2-ethylsulfanylphenyl)-6-trifluoromethyl-3H-imidazo[4,5-b]pyridine], the pest or weed control at 500 ppm with Nilaparvata lugens [3] and in the experiment with Bemisia tabaci was ≥ 90% each time.
On to `CCn1c(-c2ccccc2[S+]([O-])CC)nc2cc(C(F)(F)F)cnc21` (centres unmarked) [Present Compound 22, 2-(2-ethylsulfinylphenyl)-3-ethyl-6-trifluoromethyl-3H-imidazo[4,5-b]pyridine], for which the pest or weed control at 500 ppm (in experiment [1]; in the experiment on Bemisia tabaci) was ≥ 90% in each case.
For the molecule `CCn1c(-c2ccccc2S(=O)(=O)CC)nc2cc(C(F)(F)F)cnc21` [Present Compound 23, 2-(2-ethylsulfonylphenyl)-3-ethyl-6-trifluoromethyl-3H-imidazo[4,5-b]pyridine], the pest or weed control at 500 ppm in experiment [1] is ≥ 90%.
Turning to `CC[S+]([O-])c1ccccc1-c1nc2cc(C(F)(F)F)cnc2n1C(C)C` (centres unmarked) [Present Compound 28, 2-(2-ethylsulfinylphenyl)-3-isopropyl-6-trifluoromethyl-3H-imidazo[4,5-b]pyridine], in experiment [1], the pest or weed control at 500 ppm is ≥ 90%.
Take `CCS(=O)(=O)c1ccccc1-c1nc2cc(C(F)(F)F)cnc2n1C(C)C` [Present Compound 29, 2-(2-ethylsulfonylphenyl)-3-isopropyl-6-trifluoromethyl-3H-imidazo[4,5-b]pyridine]: the pest or weed control at 500 ppm in experiment [1] is ≥ 90%.
Still for that read-out and setting: the result for `CC[S+]([O-])c1ccccc1-c1nc2cc(C(F)(F)F)cnc2n1C1CC1` (centres unmarked) [Present Compound 31, 3-cyclopropyl-2-(2-ethylsulfinylphenyl)-6-trifluoromethyl-3H-imidazo[4,5-b]pyridine] reads ≥ 90%.
Take `CC[S+]([O-])c1ccccc1-c1nc2cc(C#N)cnc2n1C` (centres unmarked) [Present Compound 49, 6-cyano-2-(2-ethylsulfinylphenyl)-3-methyl-3H-imidazo[4,5-b]pyridine]: in the experiment on Bemisia tabaci, the pest or weed control at 500 ppm was ≥ 90%.
Consider `CC[S+]([O-])c1ccccc1-c1nc2cc(C(F)(F)F)cc(Br)c2n1C` (centres unmarked) [Present Compound 75, 7-bromo-2-(2-ethylsulfinylphenyl)-1-methyl-5-trifluoromethyl-1H-benzimidazole], for which the pest or weed control at 500 ppm with Aphis gossypii [4] and in the experiment with Bemisia tabaci was ≥ 90% in each case.
Turning to `CCSc1c(Cl)cccc1-c1nc2cc(C(F)(F)F)cnc2n1C` [Present Compound 88, 2-(3-chloro-2-ethylsulfanylphenyl)-3-methyl-6-trifluoromethyl-3H-imidazo[4,5-b]pyridine], the pest or weed control at 500 ppm in the experiment on Aphis gossypii [2] and in the experiment with Bemisia tabaci was ≥ 90% throughout.
As for `CCS(=O)(=O)c1c(Cl)cccc1-c1nc2cc(C(F)(F)F)cnc2n1C` [Present Compound 90, 2-(3-chloro-2-ethylsulfonylphenyl)-3-methyl-6-trifluoromethyl-3H-imidazo[4,5-b]pyridine], the pest or weed control at 500 ppm in the experiment with Aphis gossypii [5] and with Nilaparvata lugens [6] was ≥ 90% throughout.
With `CCSc1ccccc1-c1nc2cc(SC(F)(F)F)cnc2n1C` [Present Compound 161, 2-(2-ethylsulfanyl-phenyl)-3-methyl-6-trifluoromethylsulfanyl-3H-imidazo[4,5-b]pyridine], the pest or weed control at 500 ppm (in the experiment with Aphis gossypii [4]; in the experiment on Nilaparvata lugens [3]; in experiment [1]; in the experiment with Bemisia tabaci) was ≥ 90% throughout.
With `Cn1c(-c2ccccc2S(=O)(=O)CC(F)(F)F)nc2cc(C(F)(F)F)cnc21` [compound 188], the pest or weed control at 500 ppm in the experiment on Aphis gossypii [4], in the experiment with Nilaparvata lugens [3] and in the experiment with Bemisia tabaci was ≥ 90% throughout.
Regarding `CCS(=O)(=O)c1cc(C(F)(F)F)ccc1-c1nc2cc(C(F)(F)F)cnc2s1` [compound 251, 2-[2-ethylsulfonyl-4-(trifluoromethyl)phenyl]-6-(trifluoromethyl)thiazolo[5,4-b]pyridine], the pest or weed control at 500 ppm (with Nilaparvata lugens [6]; with Nilaparvata lugens [3]; in experiment [1]) was ≥ 90% in each case.
In the case of `CCS(=O)(=O)c1ccccc1-c1nc2cc(S(C)(=O)=O)cnc2n1C` [compound 254, 2-(2-ethylsulfonylphenyl)-6-methylsulfonyl3-methyl-3H-imidazo[4,5-b]pyridine], the pest or weed control at 500 ppm with Aphis gossypii [5] and in the experiment on Aphis gossypii [2] was ≥ 90% throughout.
As to `CCS(=O)(=O)c1cc(C(F)(F)F)ccc1-c1nc2cc(S(=O)(=O)C(F)(F)F)cnc2n1C` [compound 302, 2-(2-ethylsulfonyl-4-trifluoromethylphenyl)-3-methyl-6-trifluoromethylsulfonyl-3H-imidazo[4,5-b]pyridine], the pest or weed control at 500 ppm with Aphis gossypii [5] was ≥ 90%.
Turning to `CCS(=O)(=O)c1cc(S(F)(F)(F)(F)F)ccc1-c1nc2cc(C(F)(F)F)cnc2n1C` [compound 343, 2-(2-ethylsulfonyl-4-(pentafluorosulphur)phenyl)-3-methyl-6-trifluoromethyl-3H-imidazo[4,5-b]pyridine], the pest or weed control at 500 ppm with Aphis gossypii [4], in the experiment with Nilaparvata lugens [6], in the experiment on Nilaparvata lugens [3] and in the experiment with Bemisia tabaci was ≥ 90% throughout.

The values above are taken from patent US8853238B2, “Fused heterocyclic compound and use thereof for pest control” (Sumitomo Chemical Company, Limited, priority 2010, dated 2014).
